26 molecules from patent publication US20240400553A1, “AMINE BASED MATRIPTASE 2 INHIBITORS AND USES THEREOF” (Disc Medicine, Inc., priority 2023, published 2024) can be followed below.

The first assay has as its target T1, Human Recombinant Matriptase 2 (Homo sapiens, UniProt Q8IU80).
T1 construct: made in house
T1 sequence (Q8IU80 1-811): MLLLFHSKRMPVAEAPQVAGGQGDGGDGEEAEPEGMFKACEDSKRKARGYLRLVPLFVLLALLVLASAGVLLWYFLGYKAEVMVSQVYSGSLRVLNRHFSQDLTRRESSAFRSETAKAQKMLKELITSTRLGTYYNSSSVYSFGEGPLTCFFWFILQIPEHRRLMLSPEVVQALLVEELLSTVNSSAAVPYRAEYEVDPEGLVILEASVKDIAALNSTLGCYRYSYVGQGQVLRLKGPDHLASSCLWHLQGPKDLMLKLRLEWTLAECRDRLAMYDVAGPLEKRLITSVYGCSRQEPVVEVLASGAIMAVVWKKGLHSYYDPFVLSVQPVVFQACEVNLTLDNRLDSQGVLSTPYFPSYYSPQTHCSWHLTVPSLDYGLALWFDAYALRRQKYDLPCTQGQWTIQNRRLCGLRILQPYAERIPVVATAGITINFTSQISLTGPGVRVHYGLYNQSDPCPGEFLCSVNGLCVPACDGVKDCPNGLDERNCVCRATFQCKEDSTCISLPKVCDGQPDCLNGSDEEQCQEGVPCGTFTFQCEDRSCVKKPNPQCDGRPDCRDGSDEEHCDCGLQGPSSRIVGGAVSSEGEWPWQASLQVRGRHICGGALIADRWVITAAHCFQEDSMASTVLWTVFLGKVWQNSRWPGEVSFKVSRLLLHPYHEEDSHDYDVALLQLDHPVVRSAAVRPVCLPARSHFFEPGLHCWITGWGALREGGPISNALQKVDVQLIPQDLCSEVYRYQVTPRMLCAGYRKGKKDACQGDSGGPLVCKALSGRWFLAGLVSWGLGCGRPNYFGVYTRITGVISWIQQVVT
The assay can be described thus: Matriptase 2 inhibition, fluorescence based assay (Method I). The assay is classed as biochemical. As to conditions: Table A; Ki of Matriptase-2; read-out: Mat-2 Ki. Summed up: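 Fluorogenic readout (Ex 360/Em 480 nm) taken 60 min after adding 62 μM Boc-Gln-Ala-Arg-AMC, following 30-min enzyme–compound preincubation at 25 °C. Conditions: 3.5 nM in-house enzyme, pH 7.5 Tris/NaCl/gelatin buffer, 1% DMSO; percent inhibition versus concentration fitted by variable-slope sigmoidal regression.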
The Ki is the equilibrium dissociation constant of an inhibitor or competing ligand from its target. Regarding `NCc1ccc2cc(C(=O)OCCF)n(Cc3cc(NS(=O)(=O)Cc4ccccc4)cc4ccccc34)c2n1` [Compound 105, 2-fluoroethyl 6-(amino-methyl)-1-{[3-(phenyl-methanesulfonamido)-naphthalen-1-yl]methyl}-1H-pyrrolo[2,3-b]pyr-idine-2-carboxylate], the Ki fell in the range of 100 to 500 nM.
In the case of `CN(C)C(=O)OCCOC(=O)c1cc2ccc(CN)nc2n1Cc1cc(NS(=O)(=O)Cc2ccccc2)cc2ccccc12` [Compound 80, 2-[(dimethylcarbamoyl)-oxy]ethyl 6-(aminometh-yl)-1-{[3-phenylmethane-sulfonamido)naphthalen-1-yl]methyl}-1H-pyr-rolo[2,3-b]pyridine-2-carboxylate], the Ki was ≤ 100 nM.
Still for that read-out and setting: under `NCc1ccc2cc(C(=O)OCCN3CCCCC3)n(Cc3cc(NS(=O)(=O)Cc4ccccc4)cc4ccccc34)c2n1` [Compound 65, 2-(piperidin-1-yl)ethyl 6-(aminomethyl)-1-{[3-(phenylmethanesulfon-amido)naphthalen-1-yl]-methyl}-1H-pyrrolo[2,3-b]pyridine-2-carboxylate] stands ≤ 100 nM; under `CC(C)N(C)CCOC(=O)c1cc2ccc(CN)nc2n1Cc1cc(NS(=O)(=O)Cc2ccccc2)cc2ccccc12` [Compound 52, 2-[methyl(propan-2-yl)-amino]ethyl 6-(amino-methyl)-1-{[3-(phenyl-methanesulfonamido)-naphthalen-1-yl]methyl}-1H-pyrrolo[2,3-b]pyr-idine-2-carboxylate], ≤ 100 nM.
`CN(Cc1nccn1C)C(=O)c1cc2ccc(CN)nc2n1Cc1cc(NS(=O)(=O)Cc2ccsc2)cc2ccccc12` [Compound 181, 6-(aminomethyl)-N-methyl-N-[(1-methyl-1H-imidazol-2-yl)meth-yl]-1-({3-{(thiophen-3-yl)methanesulfonamido]-naphthalen-1-yl}methyl)-1H-pyrrolo[2,3-b]pyr-idine-2-carboxamide]: the Ki was in the range of 100 to 500 nM.
As for `C[C@H](OC(=O)c1ccccc1)OC(=O)c1cc2ccc(CN)nc2n1Cc1cc(NS(=O)(=O)Cc2ccccc2)cc2ccccc12` (racemic) [Compound 124, 1-[6-(aminomethyl)-1-{[3-(phenylmethanesul-fonamido)naphthalen-1-yl]methyl}-1H-pyrrolo-[2,3-b]pyridine-2-car-bonyloxy]ethyl benzoate], the inhibitory constant (Ki) lay in the range of 500 to 3000 nM.
The same measure, in the same setting: under `NCc1ccc2cc(C(=O)O)n(Cc3cc(NS(=O)(=O)Cc4ccccc4)cc4ccccc34)c2n1` [Compound 62, 6-(aminomethyl)-1-{[3-(phenylmethanesulfon-amido)naphthalen-1-yl]-methyl}-1H-pyrrolo[2,3-b]pyridine-2-carboxylic acid] stands ≤ 100 nM; under `COCCN1CCCC(COC(=O)c2cc3ccc(CN)nc3n2Cc2cc(NS(=O)(=O)Cc3c(C)cccc3C)cc3ccccc23)C1` (racemic) [Compound 193, [1-(2-methoxyethyl)-piperidin-3-yl]methyl 6-(aminomethyl)-1-({3-[(2,6-dimethylphenyl)-methanesulfonamido]-naphthalen-1-yl}meth-yl)-1H-pyrrolo[2,3-b]-pyridine-2-carboxylate], ≤ 100 nM.
On to `NCc1ccc2cc(C(=O)OCC3CCN(C=O)CC3)n(Cc3cc(NS(=O)(=O)Cc4ccsc4)cc4ccccc34)c2n1` [Compound 164, (1-formylpiperidin-4-yl)methyl 6-(aminometh-yl)-1-({3-[(thiophen-3-yl)methanesulfonamido]-naphthalen-1-yl}methyl)-1H-pyrrolo[2,3-b]pyr-idine-2-carboxylate], for which the Ki is ≤ 100 nM.
Regarding `CN1CCC(OC(=O)c2cc3ccc(CN)nc3n2Cc2cc(NS(=O)(=O)Cc3ccccc3)cc3ccccc23)CC1` [Compound 18, 1-methylpiperidin-4-yl 6-(aminomethyl)-1-{[3-(phenylmethanesulfon-amido)naphthalen-1-yl]-methyl}-1H-pyrrolo[2,3-b]pyridine-2-carboxylate], the Ki is ≤ 100 nM.
Consider `NCc1ccc2cc(C(=O)OCc3ccncc3)n(Cc3cc(NS(=O)(=O)Cc4ccccc4)cc4ccccc34)c2n1` [Compound 100, (pyridin-4-yl)methyl 6-(aminomethyl)-1-{[3-(phenylmethanesulfon-amido)naphthalen-1-yl]-methyl}-1H-pyrrolo[2,3-b]pyridine-2-carboxylate], for which the Ki lay in the range of 100 to 500 nM.

Still in this assay, the particulars now being: Table A; Ki of Matriptase-2 given as class symbols; read-out: Mat-2 Ki.
On to `CC(c1ccccc1)S(=O)(=O)Nc1cc(Cn2c(C(=O)OCC3CCN(C)CC3)cc3ccc(CN)cc32)c2ccccc2c1` (racemic) [Compound 380, (1-methylpiperidin-4-yl)-methyl 6-(aminomethyl)-1-{[3-(1-phenylethane-sulfonamido)naphthalen-1-yl]methyl}-1H-indole-2-carboxylate], for which the Ki is ≤ 100 nM.
The same measure, in the same setting: the figure for `C[C@@H](c1ccccc1)S(=O)(=O)Nc1cc(Cn2c(C(=O)OCC3CCN(C)CC3)cc3ccc(CN)cc32)c2ccccc2c1` [Compound 387, (1-methylpiperidin-4-yl)-methyl 6-(aminomethyl)-1-({3-[(1S)-1-phenyl-ethanesulfonamido]-naphthalen-1-yl}methyl)-1H-indole-2-carboxylate] is 100 to 500 nM.
Turning to `NCc1ccc2cc(C(=O)O)n(Cc3cc(NS(=O)(=O)CCn4cnnn4)cc4ccccc34)c2n1` [Compound 226, 6-(aminomethyl)-1-({3-[2-(1H-1,2,3,4-tetrazol-1-yl)ethanesulfonamido]-naphthalen-1-yl}methyl)-1H-pyrrolo[2,3-b]pyr-idine-2-carboxylic acid], the Ki lay in the range of 100 to 500 nM.
Regarding `NCc1ccc2cc(C(=O)Nc3nnn[nH]3)n(Cc3cc(NS(=O)(=O)Cc4ccccc4)cc4ccccc34)c2c1` [Compound 372, 6-(aminomethyl)-1-((3-((phenylmethyl)sulfonamido)naphthalen-1-yl)methyl)-N-(1H-tetrazol-5-yl)-1H-indole-2-carboxamide], the Ki was in the range of 100 to 500 nM.
Turning to `NCc1ccc2cc(C(=O)O)n(Cc3cc(NS(=O)(=O)CC4CCC(C(F)(F)F)CC4)cc4ccccc34)c2c1` (centres unmarked) [Compound 392], the Ki fell in the range of 500 to 3000 nM.
The same measure, in the same setting: the figure for `CC(C)(C)OC(=O)N1CCOC[C@@H]1CS(=O)(=O)Nc1cc(Cn2c(C(=O)O)cc3ccc(CN)nc32)c2ccccc2c1` (racemic) [Compound 277, 6-(aminomethyl)-1-{[3-({4-[(tert-butoxy)car-bonyl]morpholin-3-yl}-methanesulfonamido)-naphthalen-1-yl]methyl}-1H-pyrrolo[2,3-b]pyr-idine-2-carboxylic acid] is 500 to 3000 nM; for `Cc1nc(CS(=O)(=O)Nc2cc(Cn3c(C(=O)O)cc4ccc(CN)nc43)c3ccccc3c2)cs1` [Compound 256, 6-(aminomethyl)-1-({3-[(2-methyl-1,3-thiazol-4-yl)methanesulfon-amido]naphthalen-1-yl}-methyl)-1H-pyrrolo[2,3-b]pyridine-2-carboxylic acid] it is 100 to 500 nM; for `C[C@@H]1CN(C(=O)Nc2cc(Cn3c(C(=O)O)cc4ccc(CN)nc43)c3ccccc3c2)C[C@H](C)N1` [Compound 304, 6-(aminomethyl)-1-[(3-{[(3R,5S)-3,5-dimeth-ylpiperazine-1-carbon-yl]amino}naphthalen-1-yl)methyl]-1H-pyrrolo-[2,3-b]pyridine-2-car-boxylic acid] it is 500 to 3000 nM.
The same measure, in the same setting: under `CN1CCC(COC(=O)c2cc3ccc(CN)nc3n2Cc2cc(N[S@@+]([O-])Cc3ccccc3)cc3ccccc23)CC1` (racemic) [Compound 367] stands 500 to 3000 nM.
Still for that read-out and setting: under `Cc1cccc(C)c1CS(=O)(=O)Nc1cc(Cn2c(C(=O)OCC3CCN(C=O)CC3)cc3ccc(CN)nc32)c2ccccc2c1` [Compound 198, (1-formylpiperidin-4-yl)-methyl 6-(aminomethyl)-1-({3-[(2,6-dimethyl-phenyl)methanesulfon-amido]naphthalen-1-yl}-methyl)-1H-pyrrolo[2,3-b]pyridine-2-carboxylate] stands ≤ 100 nM.

Staying with this assay, now noted: Table B; Human Recombinant Matriptase 2, 3.5 nM enzyme, 62 μM substrate, 30 mins preincubation; read-out: Mean Ki.
Consider `CN(C)C(=O)CCCOC(=O)c1cc2ccc(CN)nc2n1Cc1cc(CS(=O)(=O)Cc2ccsc2)cc2ccccc12` [Compound 2.10], for which the inhibitory constant (Ki) is ≤ 100 nM.
As for `CN1CCC(CCOC(=O)c2cc3ccc(CN)nc3n2Cc2cc(NS(=O)(=O)Cc3ccccc3)cc3ccccc23)CC1=O` (centres unmarked) [Compound 2.3], the Ki was ≤ 100 nM.
Regarding `CN1CC(COC(=O)c2cc3ccc(CN)nc3n2Cc2cc(NS(=O)(=O)Cc3ccsc3)cc3ccccc23)CC1=O` (centres unmarked) [Compound 2.20], the inhibition constant Ki is ≤ 100 nM.
The same measure, in the same setting: the figure for `Cc1cccc(C)c1CS(=O)(=O)Nc1cc2c(c(Cn3c(C(=O)OCc4cncn4C(C)(C)C)cc4ccc(CN)nc43)c1)CCCC2` [Compound 2.42] is 100 to 500 nM.
Still for that read-out and setting: the figure for `CN1CCC(CCOC(=O)c2cc3ccc(CN)nc3n2Cc2cc(NS(=O)(=O)Cc3ccsc3)cc3ccccc23)CC1=O` (centres unmarked) [Compound 2.4] is ≤ 100 nM.
